This passage reports Ki results from patent US20120245161A1 (SANOFI, priority 2009, published 2012).

For this assay, the target named is T1, recombinant human beta tryptase (Homo sapiens, UniProt P20231).
T1 construct: made in house; host or cells: yeast cells
Briefly: beta-Tryptase inhibition, chromogenic enzyme assay (substrate S2366, read at 405 nm). Format: biochemical. Particulars: Ki calculated from IC50: Ki=IC50/(1+[Substrate]/Km), 0.5 mM substrate, room temperature. An excerpt: Inhibition of this catalytic activity may be measured by the in vitro enzyme assay and the cellular assay.
Tryptase inhibition activity is confirmed using either isolated human lung tryptase or recombinant human beta tryptase expressed in yeast cells. Essentially equivalent results are obtained using isolated native enzyme or the expressed enzyme. The assay procedure employs a 96 well microplate (Costar 3590) using L-pyroglutamyl-L-prolyl-L-arginine-para-nitroanilide (S2366: Quadratech) as substrate (essentially as described by McEuen et. al. Biochem Pharm, 1996, 52, pages 331-340). Assays are performed at room temperature using 0.5 mM substrate (2×Km) and the microplate is read on a microplate reader (Beckman Biomek Plate reader) at 405 nm wavelength.
Materials and Methods for Tryptase primary screen (Chromogenic assay)
S2366 (Stock solutions of 2.5 mM).
Purified recombinant beta Tryptase Stocks of 310 μg/mL. Protocol (Single point determination) • Add 60 μL of diluted substrate (final concentration of 500 μM in assay buffer) to each well • Add compound in duplicates, final concentration of 20 volume 20 • Add enzyme at a final concentration of 50 ng/mL in a volume of 20 • Total volume for each well is 100 • Agitate briefly to mix and incubate at room temp in the dark for 30 minutes • Read absorbencies at […] Each plate has the following controls: • Totals: 60 μL of substrate, 20 μL of buffer (with 0.2% final concentration of DMSO), • 20 μL of enzyme Non-specific: 60 μL of substrate, 40 μL of buffer (with 0.2% DMSO) Totals: 60 μL of substrate, 20 μL of buffer (No DMSO), 20 μL of enzyme Non-specific: 60 μL of substrate, 40 μL of buffer (No DMSO) Protocol (IC50 and Ki determination)
The protocol is essentially the same as above except that the compound is added in duplicates at the following final concentrations: 0.01, 0.03, 0.1, 0.3, 1, 3, 10 μM (All dilutions carried out manually). For every assay, whether single point or IC50 determination, a standard compound is used to derive IC50 for comparison. From the IC50 value, the Ki can be calculated using the following formula: Ki=IC50/(1+[Substrate]/Km).

The structures appear in SMILES notation. Structures can show the parent of a compound that is named as a salt. Where two headings read alike, the source gives them in different places.

T1 sequence (P20231 31-275): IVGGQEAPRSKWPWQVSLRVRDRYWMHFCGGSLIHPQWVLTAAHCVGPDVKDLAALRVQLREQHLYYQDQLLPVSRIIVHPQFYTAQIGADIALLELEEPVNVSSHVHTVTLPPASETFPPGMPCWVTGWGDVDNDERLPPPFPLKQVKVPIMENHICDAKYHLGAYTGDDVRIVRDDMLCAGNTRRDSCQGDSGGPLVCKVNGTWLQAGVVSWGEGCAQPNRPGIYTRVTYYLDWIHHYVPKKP

One may read the Ki as the dissociation constant of the complex between target and ligand, obtained from inhibition or displacement. Take `COCCn1cc(C(=O)N2CCC(c3cc(CN)ccc3F)CC2)c2c(OC(F)(F)F)cccc21` [Example 54, [4-(5-Aminomethyl-2-fluoro-phenyl)-piperidin-1-yl]-[1-(2-methoxy-ethyl)-4-trifluoromethoxy-1H-indol-3-yl]-methanone hydrochloride]: the Ki (Tryptase Ki (nM)) is 96 nM.
In the case of `COCCn1cc(C(=O)N2CCC(c3cc(CN)ccc3F)CC2)c2c(CCC(C)(C)O)cccc21` [Example 55, [4-(5-Aminomethyl-2-fluoro-phenyl)-piperidin-1-yl]-[4-(3-hydroxy-3-methyl-butyl)-1-(2-methoxy-ethyl)-1H-indol-3-yl]-methanone hydrochloride], the Ki (Tryptase Ki (nM)) is 72 nM.
Take `COCCn1cc(C(=O)N2CCC(c3cc(CN)ccc3F)CC2)c2c(-c3ccncc3)cccc21` [Example 56, [4-(5-Aminomethyl-2-fluoro-phenyl)-piperidin-1-yl]-[1-(2-methoxy-ethyl)-4-pyridin-4-yl-1H-indol-3-yl]-methanone]: the Ki (read-out: Tryptase Ki) was 9 nM.
For `CCOc1cccc2c1c(C(=O)N1CCC(c3cc(CN)ccc3F)CC1)cn2CCOC` [Example 57, [4-(5-Aminomethyl-2-fluoro-phenyl)-piperidin-1-yl]-[4-ethoxy-1-(2-methoxy-ethyl)-1H-indol-3-yl]-methanone hydrochloride], the inhibition constant (Ki) (Tryptase Ki (nM)) is 54 nM.
Same read-out and setting: to `COCCn1cc(C(=O)N2CCC(c3cc(CN)ccc3F)CC2)c2c(OC3CC3)cccc21` [Example 58, [4-(5-Aminomethyl-2-fluoro-phenyl)-piperidin-1-yl]-[4-cyclopropoxy-1-(2-methoxy-ethyl)-1H-indol-3-yl]-methanone hydrochloride] belongs 108 nM; to `COCCn1cc(C(=O)N2CCC(c3cc(CN)ccc3F)CC2)c2c(-c3ccccc3)cccc21` [Example 60, [4-(5-Aminomethyl-2-fluoro-phenyl)-piperidin-1-yl]-[1-(2-methoxy-ethyl)-4-phenyl-1H-indol-3-yl]-methanone hydrochloride], 22 nM.
On to `COCCn1cc(C(=O)N2CCC(c3cc(CN)ccc3F)CC2)c2c(-c3cncnc3)cccc21` [Example 61, [4-(5-Aminomethyl-2-fluoro-phenyl)-piperidin-1-yl]-[1-(2-methoxy-ethyl)-4-pyrimidin-5-yl-1H-indol-3-yl]-methanone dihydrochloride], for which, for the setting “read-out: Tryptase Ki”, the Ki is 17 nM.
On the same count and under the same terms, in the case of `Cc1cccc2c(C(=O)N3CCC(c4cc(CN)ccc4F)CC3)cn(CCn3ccnc3)c12` [Example 62, [4-(5-Aminomethyl-2-fluoro-phenyl)-piperidin-1-yl]-[1-(2-imidazol-1-yl-ethyl)-7-methyl-1H-indol-3-yl]-methanone dihydrochloride] it was 22 nM.
With `COCCn1cc(C(=O)N2CCC(c3cc(CN)ccc3F)CC2)c2c(-c3cccc(F)c3)cccc21` [Example 63, [4-(5-Aminomethyl-2-fluoro-phenyl)-piperidin-1-yl]-[4-(3-fluoro-phenyl)-1-(2-methoxyethyl)-1H-indol-3-yl]-methanone hydrochloride], the Ki (Tryptase Ki (nM)) was 46 nM.
Still for that read-out and setting: to `COCCn1cc(C(=O)N2CCC(c3cc(CN)ccc3F)CC2)c2c(-c3cccs3)cccc21` [Example 64, [4-(5-Aminomethyl-2-fluoro-phenyl)-piperidin-1-yl]-[1-(2-methoxy-ethyl)-4-thiophen-2-yl-1H-indol-3-yl]-methanone hydrochloride] belongs 39 nM.
Consider `COCCn1cc(C(=O)N2CCC(c3cc(CN)ccc3F)CC2)c2c(-c3cncc(Cl)c3)cccc21` [Example 65, [4-(5-Aminomethyl-2-fluoro-phenyl)-piperidin-1-yl]-[4-(5-chloro-pyridin-3-yl)-1-(2-methoxy-ethyl)-1H-indol-3-yl]-methanone dihydrochloride], for which the Ki (read-out: Tryptase Ki) was 11 nM.
In the case of `COCCn1cc(C(=O)N2CCC(c3cc(CN)ccc3F)CC2)c2c(-c3cc(Cl)cc(Cl)c3)cccc21` [Example 66, 4-(5-Aminomethyl-2-fluoro-phenyl)-piperidin-1-yl]-[4-(3,5-dichloro-phenyl)-1-(2-methoxy-ethyl)-1H-indol-3-yl]-methanone hydrochloride], under “Tryptase Ki (nM)”, the Ki was 164 nM.
On the same count and under the same terms, in the case of `CCCn1cc(-c2cccc3c2c(C(=O)N2CCC(c4cc(CN)ccc4F)CC2)cn3CCOC)cn1` [Example 67, [4-(5-Aminomethyl-2-fluoro-phenyl)-piperidin-1-yl]-[1-(2-methoxy-ethyl)-4-(1-propyl-1H-pyrazol-4-yl)-1H-indol-3-yl]-methanone hydrochloride] it was 12 nM; in that of `COCCn1cc(C(=O)N2CCC(c3cc(CN)ccc3F)CC2)c2c(OC(C)C)cccc21` [Example 68, [4-(5-Aminomethyl-2-fluoro-phenyl)-piperidin-1-yl]-[4-isopropoxy-1-(2-methoxy-ethyl)-1H-indol-3-yl]-methanone hydrochloride], 35 nM.
`COCCn1cc(C(=O)N2CCC(c3cc(CN)ccc3F)CC2)c2c(-c3ccc(OC(F)(F)F)cc3)cccc21` [Example 69, [4-(5-Aminomethyl-2-fluoro-phenyl)-piperidin-1-yl]-[1-(2-methoxy-ethyl)-4-(4-trifluoromethoxy-phenyl)-1H-indol-3-yl]-methanone hydrochloride]: the Ki (Tryptase Ki (nM)) is 400 nM.
Regarding `COCCn1cc(C(=O)N2CCC(c3cc(CN)ccc3F)CC2)c2c(-c3ccc(OC)cc3)cccc21` [Example 70, [4-(5-Aminomethyl-2-fluoro-phenyl)-piperidin-1-yl]-[1-(2-methoxy-ethyl)-4-(4-methoxy-phenyl)-1H-indol-3-yl]-methanone hydrochloride], the Ki (Tryptase Ki (nM)) is 21 nM.
On the same count and under the same terms, in the case of `COCCn1cc(C(=O)N2CCC(c3cc(CN)ccc3F)CC2)c2c(-c3ccc(F)cc3)cccc21` [Example 71, [4-(5-Aminomethyl-2-fluoro-phenyl)-piperidin-1-yl]-[4-(4-fluoro-phenyl)-1-(2-methoxy-ethyl)-1H-indol-3-yl]-methanone hydrochloride] it was 49 nM; in that of `COCCn1cc(C(=O)N2CCC(c3cc(CN)ccc3F)CC2)c2c(-c3cccc(O)c3)cccc21` [Example 72, [4-(5-Aminomethyl-2-fluoro-phenyl)-piperidin-1-yl]-[4-(3-hydroxy-phenyl)-1-(2-methoxy-ethyl)-1H-indol-3-yl]-methanone hydrochloride], 13 nM.
For `COCCn1cc(C(=O)N2CCC(c3cc(CN)ccc3F)CC2)c2c(-c3cccnc3)cccc21` [Example 73, [4-(5-Aminomethyl-2-fluoro-phenyl)-piperidin-1-yl]-[1-(2-methoxy-ethyl)-4-pyridin-3-yl-1H-indol-3-yl]-methanone dihydrochloride], for the setting “read-out: Tryptase Ki”, the Ki is 7 nM.
The same measure, in the same setting: to `COCCn1cc(C(=O)N2CCC(c3cc(CN)ccc3F)CC2)c2c(-c3ccccn3)cccc21` [Example 74, [4-(5-Aminomethyl-2-fluoro-phenyl)-piperidin-1-yl]-[1-(2-methoxy-ethyl)-4-pyridin-2-yl-1H-indol-3-yl]-methanone dihydrochloride] belongs 26 nM.
For `COCCn1cc(C(=O)N2CCC(c3cc(CN)ccc3F)CC2)c2c(N)cccc21` [Example 75, [4-(5-Aminomethyl-2-fluoro-phenyl)-piperidin-1-yl]-[4-amino-1-(2-methoxy-ethyl)-1H-indol-3-yl]-methanone hydrochloride], where the note is “Tryptase Ki (nM)”, the Ki was 59 nM.
As for `CNc1cccc2c1c(C(=O)N1CCC(c3cc(CN)ccc3F)CC1)cn2CCOC` [Example 76, [4-(5-Aminomethyl-2-fluoro-phenyl)-piperidin-1-yl]-[4-methylamino-1-(2-methoxy-ethyl)-1H-indol-3-yl]-methanone hydrochloride], under “Tryptase Ki (nM)”, the Ki is 211 nM.
In the case of `COCCn1cc(C(=O)N2CCC(c3cc(CN)ccc3F)CC2)c2c(N(C)C)cccc21` [Example 77, [4-(5-Aminomethyl-2-fluoro-phenyl)-piperidin-1-yl]-[4-dimethylamino-1-(2-methoxy-ethyl)-1H-indol-3-yl]-methanone hydrochloride], the Ki (Tryptase Ki (nM)) is 57 nM.
With `NCc1ccc(F)c(C2CCN(C(=O)c3cn(CCOC(F)(F)F)c4cccc(-c5ccncc5)c34)CC2)c1` [Example 78, [4-(5-Aminomethyl-2-fluoro-phenyl)-piperidin-1-yl]-[4-pyridin-4-yl-1-(2-trifluoromethoxy-ethyl)-1H-indol-3-yl]-methanone dihydrochloride], the Ki (read-out: Tryptase Ki) was 117 nM.
Regarding `NCc1ccc(F)c(C2CCN(C(=O)c3cn(CCOC(F)(F)F)c4cccc(Br)c34)CC2)c1` [Example 79, 4-(5-Aminomethyl-2-fluoro-phenyl)-piperidin-1-yl]-[4-bromo-1-(2-trifluoromethoxy-ethyl)-1H-indol-3-yl]-methanone hydrochloride], the inhibitory constant (Ki) (Tryptase Ki (nM)) was 935 nM.
